According to paper PMC11984388, “A brain-accessible peptide modulates stroke inflammatory response and neurotoxicity by targeting BDNF-receptor TrkB-T1 specific interactome” (Theranostics, 2025):

Columns and labels:
[1] = system: MEF2D; experiment: Western blot in excitotoxicity; format: cell-based, rat; conditions: peptide 15 µM 30 min, NMDA 30-120 min; normalized to NSE; differences not statistically significant compared to TMyc; n = 5
Procedure: (§1) amounts were combined with streptavidin-agarose beads previously was hed with NP-40 lysis buffer and incubated at room temperature for 1.5 h with agitation. Sedimented beads were was hed 3 times with the NP-40 lysis buffer to remove poss ible non-spe cifica lly bounded proteins, and peptides and their interacting proteins were released by incubation at 50°C for 40 min in RI P A modifie d buffer (50 mM Tris HCl pH 8.0, 150 mM NaC l, 1% sodium deoxycholate , 1% NP-40) combined with protease and phospha tase inhibitors as before .
(§2) Prote omic analysis of Bio-sT T1Ct-inte racting proteins
(§3) Prote omic analys is was performed in Pros taR (1.34.6) software tool, using the protocol for protein-level analys is. Prote omic abundanc es from 4 independent experiments were log-transforme d and filtered follow ing quality parameters: proteins present in at least >50% of one of the conditions and identifie d by at least 2 unique peptides . After, data was normalized by LOESS (locally es tima te d sc atterplot smoothing, k=0.7), and POV (par tially obse rved values ) and ME C (miss ing in entire condition values ) imputations were made using, respec tive ly, KNN (k-neares t-neighbour k=10) and det.quantile (quantile imputation using quantile = 2,5).
(§4) Differential analys is was performed using limma (3.16). Multiple comparison p-values where calibrated using sl i m algorithm and the FDR (fals e disc overy rate) is indicated for eac h comparison. For PCA (principal component analys is ), filte red, normalized and imputed data was use d corre cted for batch ef fe ct using removeBatc hEffe ct {limma} function. […]
(§5) dry milk solution in Tris Buffere d Saline-Tween (TBS-T, 20 mM Tris HCl pH 7.5, 137 mM NaC l, 0.05% Tween-20) and incubated overnight at 4°C with prima ry antibodies . […] To conclude, immunore activity was detecte d using Clar ity Wes ter n ECL Blotting Substrate (BioRad) and band intensity was quantified by dens itome tric analys is (Photos hop, Adobe). […] Multiple independent experiments were car r ied out and quantitated as detailed in the figure legends . […]

[2] = system: TrkB-T1; experiment: Western blot in excitotoxicity; format: cell-based, rat; conditions: peptide 15 µM 30 min, NMDA 30-120 min; compared to TMyc
Procedure: as §1, §2, §3, §4, §5

[3] = system: pCREB; experiment: Western blot in excitotoxicity; format: cell-based, rat; conditions: peptide 15 µM 30 min, NMDA 30-120 min; normalized to NSE; differences not statistically significant compared to TMyc; n = 5
Procedure: as §1, §2, §3, §4, §5

[4] = system: GFAP+/C3+ cells; experiment: Immunohistochemistry of reactive astrocytes in ischemic brain; format: in vivo, mice; conditions: 3 nmol/g 1 h after damage; early after injury (5 h); versus TMyc
Procedure: (§6) The brains of animals injected one hour af ter the initiation of the photothrombotic damage with vehicle (saline), TMyc or TT1Ct (3 nmol/g) were process ed and cryoprote cted as before indicated. The duration of damage before sa cri f i ce was 5 h (male and female) or 24 h (male).
(§7) Coronal froze n se ctions were incubated with blocking solution as des cribe d in flota tion for 1 h at room temperature and then overnight with prima ry antibodies diluted in 4% goat se rum and 0.3% Triton X-100 in PBS at 4°C. After was hing, slides were incubated 1 h with Alexa Fluor 546- conjugated goat anti-rabbit or AlexaFluor 647- conjugated goat anti-mouse se condary antibodies to visua liz e the prima ry antibodies and DAPI (5 μg/ml). Only for Iba1 sta ining, blocking solution was 2.5% BS A, 5% goat se rum, 0.5% Triton X-100 in PBS, and se ctions were incubated with prima ry antibody 24 h at RT follow ed by was hing and Alexa Fluor 546-conjugated goat anti-rabbit and DAPI incubation for 1 h. Sections were then was hed in PBS, mounted on slides , dried for 15 min at 37 °C on a hot plate, or air dried overnight and then cover slipped with DPX or Prolong Diamond. Ce ll Obs erve d images were obtained with Zeiss microscope Observe r.Z1 using a 10x Plan-Apochromatic objective. […]

[5] = Immunoglobulin infiltration in ischemic brain; format: in vivo; conditions: male mice, 24 h after insult; versus control peptide (Fig S7)
Procedure: as §6, §7

Ac-YGRKKRRQRRRPPFVLFHKIPLDG-NH2 [TT1Ct]
Effect on MEF2D levels [1]: partially preserved
Effect on TrkB-T1 regulation [2]: did not have significant effects
Effect on pCREB levels [3]: partially preserved
Effect on GFAP+/C3+ cells at the infarct boundary [4]: strong decrease
Immunoglobulin infiltration [5]: reduced immunoglobulin infiltration
